This is an account of results in publication PMC9181543, “Lysosomal Exocytosis of Olivacine on the Way to Explain Drug Resistance in Cancer Cells” (International Journal of Molecular Sciences, 2022).

The subject of one assay is pancreatic cancer cells. Further details: method as in PMID 10737712. Conditions: 1 μM; cited from earlier work.
The test system of assay [1] is MCF-7 cells. Details: method as in PMID 15896464. Conditions: cited from earlier work.
The subject of a further assay is NHDF cells. Briefly: MTT assay (mitochondrial activity), NHDF. The following applies: Homo sapiens, NHDF normal cells. The assay is classed as cell-based. The protocol: (§1) The anticancer activity of tested compounds was assessed on five human cell lines selected from the panel of tumor cell lines recommended by the National Cancer Institute: A495 (lung carcinoma), CCRF/CEM (acute lymphoblastic leukemia), LoVo and LoVo/DX (two types of colorectal: non-resistant and resistant to doxorubicin), and MCF-7 (breast adenocarcinoma). In addition, the NHDF cell line (normal human dermal fibroblasts) was used to estimate cytotoxicity to noncancer cells. The A549, CCRF/CEM, LoVo, LoVo/DX, and MCF-7 cells were obtained from ECACC, and NHDF cells from LONZA, Belgium. The A549 and MCF-7 cells were grown in EMEM medium, CCRF/CEM cells in RPMI-1640, LoVo and LoVo/DX cells in DMEM/F-12, and NHDF cells in DMEM without phenol red. The cells were seeded in […] in the biological assay, as recommended by the National Cancer Institute. All culture media were supplemented with L-glutamine, penicillin, streptomycin, and 10% fetal bovine serum (FBS). Cells were incubated at 37 °C and 5% CO2. An assessment of the mitochondrial cell activity after applying tested compounds was carried out using the test MTT assay, recommended in the ISO 10993-5:2009 standard. As in the SRB assay, the cells were exposed to tested compounds after 24 h of initial incubation in 96-well plates. The MTT solution (1 mg/mL) was added to each well, and cells were incubated for 2 h. Finally, the supernatant was removed, and the formazan crystals were dissolved in isopropanol. After 30 min, absorbance at 570 nm in Victor2 microplate reader (PerkinElmer). Cell viability was determined as the IC50 ratio, i.e., the concentration of the compound in which the viability was reduced by half compared with the control.

Assay [2] has as its system CCRF/CEM cells. Briefly: Evaluation of the cell cycle (Tali Cell Cycle Kit). The assay is classed as cell-based, human. The following applies: for cell cycle effect: after exposure. The protocol:
It is expected that tested compounds affect cell division processes (intense in cancer). Therefore, the effect of compounds on the cell cycle was assessed by quantifying the content of cellular DNA in CCRF/CEM cells with Tali Cell Cycle Kit (Invitrogen). Cells were prepared by 24 h initial incubation in RPMI-1640 medium followed by the addition of tested compounds for a further 24 h. Subsequently, cells were harvested, centrifuged, washed, dissolved in PBS, and centrifuged again. After removing PBS, the cells were resuspended in Tali Cell Cycle Solution and incubated for 20 min in the dark at RT. Finally, the cells were transferred to the Tali Cellular Analysis Slides and analyzed using an image-based cytometer Arthur (NanoEnTek Inc.).

The subject of assay [3] is A549 cells. Kind of assay: SRB assay (total protein content), A549. The assay is classed as cell-based. The following applies: Homo sapiens, 48 h incubation. The protocol: (§2) The anticancer activity of tested compounds was assessed on five human cell lines selected from the panel of tumor cell lines recommended by the National Cancer Institute: A495 (lung carcinoma), CCRF/CEM (acute lymphoblastic leukemia), LoVo and LoVo/DX (two types of colorectal: non-resistant and resistant to doxorubicin), and MCF-7 (breast adenocarcinoma). In addition, the NHDF cell line (normal human dermal fibroblasts) was used to estimate cytotoxicity to noncancer cells. The A549, CCRF/CEM, LoVo, LoVo/DX, and MCF-7 cells were obtained from ECACC, and NHDF cells from LONZA, Belgium. The A549 and MCF-7 cells were grown in EMEM medium, CCRF/CEM cells in RPMI-1640, LoVo and LoVo/DX cells in DMEM/F-12, and NHDF cells in DMEM without phenol red. The cells were seeded in […] in the biological assay, as recommended by the National Cancer Institute. All culture media were supplemented with L-glutamine, penicillin, streptomycin, and 10% fetal bovine serum (FBS). Cells were incubated at 37 °C and 5% CO2. One of the most popular in vitro tests to evaluate the activity of compounds with potential antitumor activity is the SRB assay. […] Growth inhibition was calculated following the NCI guidelines and expressed as the GI50 ratio, i.e., the concentration of the compound in which the amount of protein was reduced by half compared with the control.

A further assay relates to MV4–11 cells. Further details: method as in PMID 25107543. The following applies: 5 μM; cited from earlier work.
For another assay, the system named is LoVo cells. Briefly: MTT assay (mitochondrial activity), LoVo. In kind it is cell-based. The following applies: Homo sapiens. The method, then:
as §1
On the technique in general: Tetrazolium dyes change colour on reduction, which living cells bring about.

Another assay concerns T24 cell. Details: method as in PMID 28138703. Conditions: T24 cell study; cited from earlier work.
Assay [4] deals with CCRF/CEM cells. Details: method as in PMID 11755121. Conditions: 48 h exposure; cited from earlier work.
In assay [5] the test system is MCF-7 cells. Kind of assay: SRB assay (total protein content), MCF-7. The assay is classed as cell-based. The following applies: Homo sapiens, MCF7, 48 h incubation. The method, then:
as §2, with “assay. The sulforhodamine B dye is used, which binds to the protein at the appropriate pH. The assay allows for assessing cell mass and, indirectly, their proliferation. The advantage of the assay is that it measures cellular protein content and not the activity of any enzymes. The SRB assay was carried out according to the National Cancer Institute procedure. Cells were incubated in a culture medium for 24 h in 96-well plates. After 24 h, the control plate for each cell line was fixed with TCA to evaluate cell culture before treatment with tested compounds. […] Cell cultures were then fixed by adding 50% TCA at 4 °C for 1 h. After removing the supernatant, the plates were washed with water and dried.” for “assay.”
(In general: In SRB staining, fixed cells bind dye roughly in proportion to their protein.)

In assay [6] the test system is A549 cells. Briefly: Cell morphology, microscopic observation, A549. In kind it is cell-based, human. The following applies: for cell morphology: 24 h incubation. The method, then: Olivacine, similar to ellipticine, is a compound with fluorescent properties. Therefore, by analyzing the intensity of fluorescence over time, it is possible to assess the cellular pharmacokinetics of the compounds. At the same time, cell morphology was also assessed. The cells were seeded into a 96-well plate and cultured for 24 h (37 °C, 5% CO2) for cell adhesion to the surface and regeneration. […] The culture plate was placed under a Juli microscope, and the device with the plate inside was put in the CO2 incubator. Pictures were taken every 15 min for 24 h. We have prepared software that allowed us to measure the fluorescence intensity of the indicated cells. Fluorescence analysis was performed for all images (every 15 min) during a period of rapid change in fluorescence intensity and less often at a later period when it stabilized. Three independent experiments were carried out, always analyzing 50 selected cells.

In the case of `Cc1c2ccncc2c(C)c2c1[nH]c1ccccc12` [Ellipticine], the cell cycle effect entry with pancreatic cancer cells is “arrest cell cycle progression in both G1 and G2/M phases”; with CCRF/CEM cells [2] it was “blockade of the cell cycle in the G0/G1 phase”; in the assay on MV4–11 cells it was “arrest of the cell cycle at the G2/M checkpoint”; in the assay with T24 cell, “stops the cell cycle in the G2/M phase”. The IC50 (in general, the point on the concentration scale where inhibition reaches its midpoint) was 1.52 µM with MCF-7 cells [1], 8.98 ± 1.44 µM with NHDF cells, 3.27 ± 0.83 µM in the assay on LoVo cells and 4.7 ± 0.48 µM in the assay on CCRF/CEM cells [4]. Besides, the GI50 – broadly, the concentration at which growth is held to half of that of the control – in the assay on A549 cells [3] was found to be 0.72 ± 0.06 µM; with MCF-7 cells [5], 1.25 ± 0.77 µM.

As for `Cc1nccc2c(C)c3[nH]c4ccccc4c3cc12` [Olivacine, 1,5-dimethyl-6H-pyrido[4,3-b]carbazole], the figures for the IC50 in the assay with NHDF cells and in the assay with LoVo cells were 15.3 ± 1.95 µM and 12.7 ± 1.08 µM, respectively. In addition, the “cell cycle inhibition at lower concentrations” value with CCRF/CEM cells [2] (0.2 µM and 0.5 µM) is reported as “No cell cycle inhibition”. Besides, the cell cycle effect result in the assay on CCRF/CEM cells [2] was “blockade of the cell cycle in the G0/G1 phase”. Further, the figures for the cell morphology entry in the assay with A549 cells [6] (2 μM) and in the assay with A549 cells [6] (20 μM) were “Cytosol degradation” and “completely degraded”, respectively. For the same compound, in the assay with A549 cells [6] (microscopic observation, 24 h), the “concentration at which growth inhibition is visible” value was 2 µM. Also, the GI50 was determined as 0.93 ± 0.06 µM with A549 cells [3] and 0.75 ± 0.07 µM with MCF-7 cells [5].
